Assay results: patent US10793514B2, “Glutamine transport inhibitors and methods for treating cancer” (Vanderbilt University, priority 2016, dated 2020)

Columns and labels:
HT29 cells = test: Glutathione and reactive oxygen species in HT29 cells; assay type: cell-based, human; details: 48 h
Protocol: Glutathione levels were measured using a commercially available kit (Cayman Chemical 703002) according to the manufacturers protocol. Concurrently ROS was measured in cells using CM-H2DCFDA (Life Technologies C6827) coupled with flow cytometry in accordance with the manufacturers protocol. The assay was replicated replicated at least three times, technically and biologically. Significance was calculated using a t-test in Graphpad Prism. Error is reported as standard deviation (SD).

[1] = test system: human CRC organoids A-007 and A-008; test: Human CRC organoid viability assay; assay type: cell-based; details: V-9302 25 μM or CB-839 35 μM, 96 h
Protocol: Human CRC-derived organoids were prepared as reported method with modification^41. Briefly, specimens from freshly resected tumors were minced and digested with 2 mg/ml type 2 collagenase (Worthington, N.J., USA). Samples were passed through 40 µm filters (Greiner Bio One, NC, USA) and epithelial cells trapped on the filters were embed in Matrigel (Corning, MA, USA) and cultured with advanced DMEM/F12 supplemented with N2 and B27 supplements (Thermo Fischer, MA, USA), 50 ng/ml rhEGF (R&D systems, MN, USA) and 1% antibiotic-antimycotic (Corning). For viability assay, organoids were dissociated by TrypLE express (Thermo Fischer) and suspended in Matrigel. […] After 4 days of culture, images of the organoids in Matrigel were captured and the number of viable cells were quantified with CellTiter Aqueous One Cell Proliferation Assay kit (Promega, WI, USA) and a Synergy 4 plate reader (BioTek, VT, USA). The assay was replicated at least three times, technically and biologically. Significance was calculated using a t-test in Graphpad Prism. Error is reported as standard deviation (SD).

HCC1806 xenografts = test: HCC1806 xenograft 10-day exposure study; assay type: in vivo, mouse; details: 75 mg/kg per day, 10 days
Protocol: Tissues were sectioned (5 μm thickness) and stained for pS6 (Cell Signaling, #4858) and caspase 3 (Cell Signaling #9661). Tissue slides were imaged at 20× magnification.
For in vivo studies, cell-line xenograft tumors were propagated in 6-week old, female athymic nude mice from immortalized cell lines. For HCC-1806 (10×10^6 cells), HCT-116 (5×10^6), and HT29 (10×10^6) cells were injected. Palpable tumors were typically visible within 2-3 weeks. For imaging studies (HCC-1806), tumors were propagated to approximately 500 mm^3. For treatment studies (HCT-116, HT29) tumors were propagated to approximately 200 mm^3 prior to therapy and were randomly assigned into treated and untreated cohorts. For generating the PDX, primary tumor tissue was obtained form a patient at Vanderbilt University Medical Center under an IRB approved protocol. The tumor tissue was genotyped within the VANTAGE core facility. Xenograft was generated as previously described 41. Briefly, tumor tissues were sectioned into approximately 125 cubic millimeter pieces then implanted subcutaneously without further manipulation. […] Tumor volumes were measured manually using calipers every third day and quantified using the formula V=W·L·(H/2).

HT29 xenografts = test: Global metabolomic analysis of HT29 xenografts; assay type: in vivo, mouse; details: 21 consecutive days
Protocol: Metabolomic data acquisition was outsourced to Metabolon, Inc. Samples were prepared using the automated MicroLab STAR® system from Hamilton Company. To remove protein, dissociate small molecules bound to protein or trapped in the precipitated protein matrix, and to recover chemically diverse metabolites, proteins were precipitated with methanol under vigorous shaking for 2 min (Glen Mills GenoGrinder 2000) followed by centrifugation. The resulting extract was divided into five fractions: two for analysis by two separate reverse phase (RP)/UPLC-MS/MS methods with positive ion mode electrospray ionization (ESI), one for analysis by RP/UPLC-MS/MS with negative ion mode ESI, one for analysis by HILIC/UPLC-MS/MS with negative ion mode ESI, and one sample was reserved for backup. Samples were placed briefly on a TurboVap® (Zymark) to remove the organic solvent. All methods utilized a Waters ACQUITY ultra-performance liquid chromatography (UPLC) and a Thermo Scientific Q-Exactive high resolution/accurate mass spectrometer interfaced with a heated electrospray ionization (HESI-II) source and Orbitrap mass analyzer operated at 35,000 mass resolution. The sample extract was dried then reconstituted in solvents compatible to each of the four methods. Each reconstitution solvent contained a series of standards at fixed concentrations to ensure injection and chromatographic consistency. One aliquot was analyzed using acidic positive ion conditions, chromatographically optimized for more hydrophilic compounds. […] Another aliquot was also analyzed using acidic positive ion conditions, however it was chromatographically optimized for more hydrophobic compounds. […] Another aliquot was analyzed using basic negative ion optimized conditions using a separate dedicated C18 column. […] The fourth aliquot was analyzed via negative ionization following elution from a HILIC column (Waters UPLC BEH Amide 2.1×150 mm, 1.7 μm) using a gradient consisting of water and acetonitrile with 10 mM Ammonium Formate, pH 10.8. […] Peaks were quantified using area-under-the-curve. […]

Cc1cccc(COc2ccccc2CN(CCC(N)C(=O)O)Cc2ccccc2OCc2cccc(C)c2)c1 (stereo not shown) [Compound V-9302]
GSSG levels and ROS (HT29 cells): elevated GSSG levels and ROS | organoid viability [1]: significantly reduced | tumor growth (HCC1806 xenografts): tumor growth arrest | tumor response markers (HCC1806 xenografts): elevated LC3B and cleaved caspase 3, along with decreased pAKT (Ser473) and pS6 | creatine-phosphate levels in treated tumors (HT29 xenografts): significantly reduced | oxidized glutathione (GSSG) and 4-hydroxy-nonenal-glutathione in tumors (HT29 xenografts): significantly elevated | reduction of N-acetylserine in treated tumors (HT29 xenografts): greater than 4 fold
